In patent US10322108B2, “N-benzoate group substituted benzopyrroline-2-one derivative and use thereof” (BEIJING HANMI PHARMACEUTICAL CO., LTD., priority 2015, dated 2019):

The molecules below were run against RORγ-LBD (Homo sapiens (Human), UniProt P51449) (assay: LanthaScreen TR-FRET screening of RORγ-LBD / co-activator (Fluorescein-D22) interaction). Conditions: not given.
Sequence of RORγ-LBD (P51449 269-508): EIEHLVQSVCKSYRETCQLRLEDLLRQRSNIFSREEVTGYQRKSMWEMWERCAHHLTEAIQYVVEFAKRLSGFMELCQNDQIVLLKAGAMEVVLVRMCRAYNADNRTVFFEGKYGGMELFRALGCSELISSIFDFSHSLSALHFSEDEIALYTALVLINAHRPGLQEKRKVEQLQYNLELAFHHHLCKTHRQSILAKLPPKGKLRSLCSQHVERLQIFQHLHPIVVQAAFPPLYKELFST

**Q.** `Cc1cccc2c1/C(=C/c1c(Cl)cccc1C1CCC1)C(=O)N2c1ccc(C(=O)O)c(O)c1` [Example 35] was tested. Which IC50 did it give?
**A.** Its IC50 is 100 to 1000 nM.

**Q.** For `Cc1cccc2c1/C(=C/c1c(Cl)cccc1C1CC1)C(=O)N2c1ccc(C(=O)O)c(F)c1` [Example 25, (trans)-4-(3-(2-chloro-6-cyclopropyl-benzylidene)-4-methylindolin-2-on-1-yl)-2-fluoro-benzoic acid], which IC50 is on record?
**A.** Its IC50 is 100 to 1000 nM.

**Q.** With `CCCc1cccc(Cl)c1/C=C1/C(=O)N(c2ccc(C(=O)O)cc2)c2cccc(F)c21` [Example 20B, (cis)-4-(3-(2-chloro-6-n-propyl-benzylidene)-4-fluoro-indolin-2-on-1-yl)-benzoic acid] as the molecule, how does the IC50 read?
**A.** Its IC50 is 100 to 1000 nM.

**Q.** `CCCc1cccc(Cl)c1/C=C1\C(=O)N(c2ccc(C(=O)O)cc2)c2cccc(F)c21` [Example 20A, (trans)-4-(3-(2-chloro-6-n-propyl-benzylidene)-4-fluoro-indolin-2-on-1-yl)-benzoic acid] was tested. Which IC50 did it give?
**A.** Its IC50 is 100 to 1000 nM.

**Q.** Which IC50 does the source give for `O=C(O)c1ccc(N2C(=O)/C(=C\c3c(Cl)cccc3C3CC3)c3c(Cl)cccc32)cc1O` [Example 14, 4-(3-(2-chloro-6-cyclopropyl-benzylidene)-4-chloro-indolin-2-on-1-yl)-2-hydroxybenzolic acid] here?
**A.** Its IC50 is 100 to 1000 nM.

**Q.** Which IC50 does the source give for `Cc1cccc2c1/C(=C/c1c(Cl)cccc1C1CC1)C(=O)N2c1ccc(C(=O)O)c(N)c1` [Example 33] here?
**A.** The IC50 was 1000 to 10000 nM.

**Q.** `COc1cccc(Cl)c1/C=C1\C(=O)N(c2ccc(C(=O)O)cc2)c2cccc(C)c21` [Example 32, (trans)-4-(3-(2-chloro-6-methoxy-benzylidene)-4-methylindolin-2-on-1-yl)-benzoic acid] was tested. Which IC50 did it give?
**A.** Its IC50 is 1000 to 10000 nM.

**Q.** How did the IC50 turn out when `O=C(O)c1ccc(N2C(=O)/C(=C\c3c(F)cccc3Cl)c3c(F)cccc32)cc1` [Example 17A, (trans)-4-(3-(2-chloro-6-fluoro-benzylidene)-4-fluoro-indolin-2-on-1-yl)-benzoic acid] was run?
**A.** The IC50 was 100 to 1000 nM.

**Q.** How did the IC50 turn out when `O=C(O)c1ccc(N2C(=O)/C(=C\c3c(Cl)cccc3C3CC3)c3c(-c4ccccc4)cccc32)cc1` [Example 13] was run?
**A.** The IC50 was 100 to 1000 nM.

**Q.** For `Cc1cccc(Cl)c1/C=C1\C(=O)N(c2ccc(C(=O)O)cc2)c2cccc(C)c21` [Example 29, (trans)-4-(3-(2-chloro-6-methyl-benzylidene)-4-methylindolin-2-on-1-yl)-benzoic acid], which IC50 is on record?
**A.** Its IC50 is 100 to 1000 nM.

Same assay, conditions: read-out: IC50 Values; TR-FRET, 2 nM RORγ-LBD, 150 nM Fluorescein-D22 co-activator

**Q.** For `O=C(O)c1ccc(N2C(=O)/C(=C\c3c(Cl)cccc3C3CC3)c3c(C4CC4)cccc32)cc1O` [Example 12, (trans)-4-(3-(2-chloro-6-cyclopropyl-benzylidene)-4-cyclopropylindolin-2-on-1-yl)-2-hydroxybenzolic acid], which IC50 is on record?
**A.** The IC50 was under 100 nM.

**Q.** How did the IC50 turn out when `Cc1cccc2c1/C(=C/c1c(Cl)cccc1Br)C(=O)N2c1ccc(C(=O)O)c(O)c1` [Example 7, (trans)-4-(3-(2-chloro-6-bromo-benzylidene)-4-methylindolin-2-on-1-yl)-2-hydroxybenzolic acid] was run?
**A.** The IC50 was under 100 nM.

**Q.** `Cc1cccc2c1/C(=C/c1c(Cl)cccc1C1CCC1)C(=O)N2c1ccc(C(=O)O)cc1` [Example 34] was tested. Which IC50 did it give?
**A.** Its IC50 is under 100 nM.

**Q.** With `O=C(O)c1ccc(N2C(=O)/C(=C\c3c(Cl)cccc3Cl)c3c(F)cccc32)cc1O` [Example 22A, (trans)-4-(3-(2,6-dichloro-benzylidene)-4-fluoro-indolin-2-on-1-yl)-2-hydroxy-benzoic acid] as the molecule, how does the IC50 read?
**A.** The IC50 was under 100 nM.

**Q.** With `O=C(O)c1ccc(N2C(=O)/C(=C/c3c(Cl)cccc3C(F)(F)F)c3c(F)cccc32)cc1` [Example 19B, (cis)-4-(3-(2-chloro-6-trifluoromethyl-benzylidene)-4-fluoro-indolin-2-on-1-yl)-benzoic acid] as the molecule, how does the IC50 read?
**A.** The IC50 was under 100 nM.

**Q.** How did the IC50 turn out when `O=C(O)c1ccc(N2C(=O)/C(=C\c3c(Cl)cccc3C3CC3)c3c(F)cccc32)cc1` [Example 16A, (trans)-4-(3-(2-chloro-6-cyclopropyl-benzylidene)-4-fluoro-indolin-2-on-1-yl)-benzoic acid] was run?
**A.** Its IC50 is under 100 nM.

**Q.** With `O=C(O)c1ccc(N2C(=O)/C(=C\c3c(Cl)cccc3C(F)(F)F)c3c(F)cccc32)cc1` [Example 19A, (trans)-4-(3-(2-chloro-6-trifluoromethyl-benzylidene)-4-fluoro-indolin-2-on-1-yl)-benzoic acid] as the molecule, how does the IC50 read?
**A.** The IC50 was under 100 nM.
